Reference: US10538554B2, “Peptides and uses therefor as antiviral agents” (priority 2015, dated 2020)
Like-named read-outs stand apart in the source and are kept apart here. Bridge positions count the residues as written; N and C are the ends. Square brackets hold non-standard residues; d marks the D form. Peptide text beside a SMILES is read from it.

Columns and labels:
[1] = system: H1N1 A1/Malaysia/302/1954; conditions: A1/Malaysia/302/1954, 48 h
[2] = system: H3N8 A/Miami/2/63; conditions: A/Miami/2/63, 48 h
[3] = system: H3N2 A/HK/8/1968; conditions: A/HK/8/1968, 48 h
[4] = system: H9N2 A/Iran/16/2000; conditions: 48 h

Row | Structure (SMILES) | % inhibition H1N1 ([1]; 50 μM) [%] | % inhibition H3N8 ([2]; 50 μM) [%] | % inhibition H3N2 ([3]; 50 μM) [%] | % inhibition H9N2 ([4]; 50 μM) [%] | % inhibition H1N1 ([1]; 500 μM) [%] | % inhibition H3N8 ([2]; 500 μM) [%] | % inhibition H3N2 ([3]; 500 μM) [%] | % inhibition H9N2 ([4]; 500 μM) [%]
1 | CC[C@@H](C)[C@H]1NC(=O)[C@@H](Cc2ccccc2)NC(=O)[C@@H](CCCNC(=N)N)NC(=O)[C@@H](CC(N)=O)NC(=O)[C@@H](Cc2c[nH]c3ccccc23)NC(=O)[C@@H]([C@H](C)O)NC(=O)[C@H](NC(=O)[C@H](CCCCN)NC(=O)[C@H](CCCCN)NC(=O)[C@H](CCCNC(=N)N)NC(=O)[C@@H](N)CCCNC(=N)N)CSSC[C@H](C(=O)O)NC(=O)[C@@H](CC(N)=O)NC1=O [PSP III B12, H-RRKKctwnrfinc-OH] (H-RRKK[dC][dT][dW][dN][dR][dF][dI][dN][dC]-OH; disulfide 5-13) | 75 | 87 | 100 | 83 | – | – | – | –
2 | CC[C@@H](C)[C@H]1NC(=O)[C@@H](Cc2ccccc2)NC(=O)[C@@H](CCCNC(=N)N)NC(=O)[C@@H](CCC(N)=O)NC(=O)[C@@H](Cc2c[nH]c3ccccc23)NC(=O)[C@@H]([C@H](C)O)NC(=O)[C@H](NC(=O)[C@H](CCCCN)NC(=O)[C@H](CCCCN)NC(=O)[C@H](CCCNC(=N)N)NC(=O)[C@@H](N)CCCNC(=N)N)CSSC[C@H](C(=O)O)NC(=O)[C@@H](CC(N)=O)NC1=O [PSP III B14, H-RRKKctwqrfinc-OH] (H-RRKK[dC][dT][dW][dQ][dR][dF][dI][dN][dC]-OH; disulfide 5-13) | 83 | 87 | 96 | 86 | – | – | – | –
3 | C[C@H](O)[C@H]1NC(=O)[C@H](N)CSSC[C@H](C(=O)O)NC(=O)[C@@H](CC(N)=O)NC(=O)[C@H]2CCCN2C(=O)[C@@H](Cc2ccccc2)NC(=O)[C@@H](CCCNC(=N)N)NC(=O)[C@@H](CO)NC(=O)[C@@H](CCCCN)NC1=O [PSP 13, H-ctksrfpnc-OH] (H-[dC][dT][dK][dS][dR][dF][dP][dN][dC]-OH; disulfide 1-9) | – | – | – | – | 32.7 | 70.1 | 29.6 | 18.2
4 | CC[C@@H](C)[C@H]1NC(=O)[C@@H](Cc2ccccc2)NC(=O)[C@@H](CCCNC(=N)N)NC(=O)[C@@H](CO)NC(=O)[C@@H](Cc2c[nH]c3ccccc23)NC(=O)[C@@H]([C@H](C)O)NC(=O)[C@H](NC(=O)[C@H](CCCCN)NC(=O)[C@H](CCCCN)NC(=O)[C@H](CCCNC(=N)N)NC(=O)[C@@H](N)CCCNC(=N)N)CSSC[C@H](C(=O)O)NC(=O)[C@@H](CC(N)=O)NC1=O [PSP III B16, H-RRKKctwsrfinc-OH] (H-RRKK[dC][dT][dW][dS][dR][dF][dI][dN][dC]-OH; disulfide 5-13) | 88 | 96 | 96 | 88 | – | 100 | – | –
5 | C[C@H](O)[C@H]1NC(=O)[C@H](N)CSSC[C@H](C(=O)O)NC(=O)[C@@H](CC(N)=O)NC(=O)[C@@H](C)NC(=O)[C@@H](Cc2ccccc2)NC(=O)[C@@H](CCCNC(=N)N)NC(=O)[C@@H](CO)NC(=O)[C@@H](CCCCN)NC1=O [PSP 1, H-ctksrfanc-OH] (H-[dC][dT][dK][dS][dR][dF][dA][dN][dC]-OH; disulfide 1-9) | – | – | – | – | 29.4 | 79.4 | 70.4 | 36.4
6 | C[C@H](O)[C@H]1NC(=O)[C@H](N)CSSC[C@H](C(=O)O)NC(=O)[C@@H](CC(N)=O)NC(=O)[C@@H](CC(=O)O)NC(=O)[C@@H](Cc2ccccc2)NC(=O)[C@@H](CCCNC(=N)N)NC(=O)[C@@H](CO)NC(=O)[C@@H](CCCCN)NC1=O [PSP 3, H-ctksrfdnc-OH] (H-[dC][dT][dK][dS][dR][dF][dD][dN][dC]-OH; disulfide 1-9) | – | – | – | – | 29.4 | 67 | 74.1 | >50
7 | CC[C@@H](C)[C@H]1NC(=O)[C@@H](Cc2ccccc2)NC(=O)[C@@H](CCCNC(=N)N)NC(=O)[C@@H](CCSC)NC(=O)[C@@H](Cc2c[nH]c3ccccc23)NC(=O)[C@@H]([C@H](C)O)NC(=O)[C@H](NC(=O)[C@H](CCCCN)NC(=O)[C@H](CCCCN)NC(=O)[C@H](CCCNC(=N)N)NC(=O)[C@@H](N)CCCNC(=N)N)CSSC[C@H](C(=O)O)NC(=O)[C@@H](CC(N)=O)NC1=O [PSP III B11, H-RRKKctwmrfinc-OH] (H-RRKK[dC][dT][dW][dM][dR][dF][dI][dN][dC]-OH; disulfide 5-13) | 94 | 96 | 100 | 93 | – | – | – | –
8 | CC[C@@H](C)[C@H]1NC(=O)[C@@H](Cc2ccccc2)NC(=O)[C@@H](CCCNC(=N)N)NC(=O)[C@@H]([C@H](C)CC)NC(=O)[C@@H](Cc2c[nH]c3ccccc23)NC(=O)[C@@H]([C@H](C)O)NC(=O)[C@H](NC(=O)[C@H](CCCCN)NC(=O)[C@H](CCCCN)NC(=O)[C@H](CCCNC(=N)N)NC(=O)[C@@H](N)CCCNC(=N)N)CSSC[C@H](C(=O)O)NC(=O)[C@@H](CC(N)=O)NC1=O [PSP III B8, H-RRKKctwirfinc-OH] (H-RRKK[dC][dT][dW][dI][dR][dF][dI][dN][dC]-OH; disulfide 5-13) | 88 | 91 | 100 | 81 | – | – | – | –
9 | CC[C@@H](C)[C@H]1NC(=O)[C@@H](Cc2ccccc2)NC(=O)[C@@H](CCCNC(=N)N)NC(=O)[C@H]2CCCN2C(=O)[C@@H](Cc2c[nH]c3ccccc23)NC(=O)[C@@H]([C@H](C)O)NC(=O)[C@H](NC(=O)[C@H](CCCCN)NC(=O)[C@H](CCCCN)NC(=O)[C@H](CCCNC(=N)N)NC(=O)[C@@H](N)CCCNC(=N)N)CSSC[C@H](C(=O)O)NC(=O)[C@@H](CC(N)=O)NC1=O [PSP III B13, H-RRKKctwprfinc-OH] (H-RRKK[dC][dT][dW][dP][dR][dF][dI][dN][dC]-OH; disulfide 5-13) | 63 | 83 | 96 | 79 | – | – | – | –
10 | CC[C@@H](C)[C@H]1NC(=O)[C@@H](Cc2ccccc2)NC(=O)[C@@H](CCCNC(=N)N)NC(=O)[C@@H](CS)NC(=O)[C@@H](Cc2c[nH]c3ccccc23)NC(=O)[C@@H]([C@H](C)O)NC(=O)[C@H](NC(=O)[C@H](CCCCN)NC(=O)[C@H](CCCCN)NC(=O)[C@H](CCCNC(=N)N)NC(=O)[C@@H](N)CCCNC(=N)N)CSSC[C@H](C(=O)O)NC(=O)[C@@H](CC(N)=O)NC1=O [PSP III B2, H-RRKKctwcrfinc-OH] (H-RRKK[dC][dT][dW][dC][dR][dF][dI][dN][dC]-OH; disulfide 5-13) | 71 | 87 | 96 | 74 | – | – | – | –
11 | CC[C@@H](C)[C@H]1NC(=O)[C@@H](Cc2ccccc2)NC(=O)[C@@H](CCCNC(=N)N)NC(=O)[C@@H](CCC(=O)O)NC(=O)[C@@H](Cc2c[nH]c3ccccc23)NC(=O)[C@@H]([C@H](C)O)NC(=O)[C@H](NC(=O)[C@H](CCCCN)NC(=O)[C@H](CCCCN)NC(=O)[C@H](CCCNC(=N)N)NC(=O)[C@@H](N)CCCNC(=N)N)CSSC[C@H](C(=O)O)NC(=O)[C@@H](CC(N)=O)NC1=O [PSP III B4, H-RRKKctwerfinc-OH] (H-RRKK[dC][dT][dW][dE][dR][dF][dI][dN][dC]-OH; disulfide 5-13) | 81 | 91 | 100 | 86 | – | – | – | –
12 | C[C@H](O)[C@H]1NC(=O)[C@H](N)CSSC[C@H](C(=O)O)NC(=O)[C@@H](CC(N)=O)NC(=O)[C@@H](Cc2c[nH]cn2)NC(=O)[C@@H](Cc2ccccc2)NC(=O)[C@@H](CCCNC(=N)N)NC(=O)[C@@H](CO)NC(=O)[C@@H](CCCCN)NC1=O [PSP 7, H-ctksrfhnc-OH] (H-[dC][dT][dK][dS][dR][dF][dH][dN][dC]-OH; disulfide 1-9) | – | – | – | – | 23.5 | 76.3 | 81.8 | 31.8
13 | CC[C@@H](C)[C@H]1NC(=O)[C@@H](Cc2ccccc2)NC(=O)[C@@H](CCCNC(=N)N)NC(=O)[C@@H](Cc2c[nH]c3ccccc23)NC(=O)[C@@H](Cc2c[nH]c3ccccc23)NC(=O)[C@@H]([C@H](C)O)NC(=O)[C@H](NC(=O)[C@H](CCCCN)NC(=O)[C@H](CCCCN)NC(=O)[C@H](CCCNC(=N)N)NC(=O)[C@@H](N)CCCNC(=N)N)CSSC[C@H](C(=O)O)NC(=O)[C@@H](CC(N)=O)NC1=O [PSP III B19, H-RRKKctwwrfinc-OH] (H-RRKK[dC][dT][dW][dW][dR][dF][dI][dN][dC]-OH; disulfide 5-13) | 94 | 100 | 100 | 97 | – | – | – | –
14 | CC[C@@H](C)[C@H]1NC(=O)[C@@H](Cc2ccccc2)NC(=O)[C@@H](CCCNC(=N)N)NC(=O)[C@@H]([C@H](C)O)NC(=O)[C@@H](Cc2c[nH]c3ccccc23)NC(=O)[C@@H]([C@H](C)O)NC(=O)[C@H](NC(=O)[C@H](CCCCN)NC(=O)[C@H](CCCCN)NC(=O)[C@H](CCCNC(=N)N)NC(=O)[C@@H](N)CCCNC(=N)N)CSSC[C@H](C(=O)O)NC(=O)[C@@H](CC(N)=O)NC1=O [PSP III B17, H-RRKKctwtrfinc-OH] (H-RRKK[dC][dT][dW][dT][dR][dF][dI][dN][dC]-OH; disulfide 5-13) | 79 | 96 | 96 | 86 | – | – | – | –
15 | CC[C@@H](C)[C@H]1NC(=O)[C@@H](Cc2ccccc2)NC(=O)[C@@H](CCCNC(=N)N)NC(=O)[C@@H](C(C)C)NC(=O)[C@@H](Cc2c[nH]c3ccccc23)NC(=O)[C@@H]([C@H](C)O)NC(=O)[C@H](NC(=O)[C@H](CCCCN)NC(=O)[C@H](CCCCN)NC(=O)[C@H](CCCNC(=N)N)NC(=O)[C@@H](N)CCCNC(=N)N)CSSC[C@H](C(=O)O)NC(=O)[C@@H](CC(N)=O)NC1=O [PSP III B18, H-RRKKctwvrfinc-OH] (H-RRKK[dC][dT][dW][dV][dR][dF][dI][dN][dC]-OH; disulfide 5-13) | 90 | 100 | 100 | 88 | – | – | – | –
